Read-outs that look alike come from different tables or passages of the source.
Assays:
egg plant = assay: Phytotoxicity on various crops; type: in vivo; parameters: key: Symbol — indicates that no toxicity was observed; conditions: 500 ppm sprayed; checked visually after 10 days
Procedure: (§1) An emulsifiable concentrate prepared as described in Formulation Example 2 was diluted with water to a concentration of 500 ppm based on the effective ingredient and sprayed sufficiently using a spray-gun onto various test plants. The plants were kept in a green house. After 10 days from the application phytotoxicity was checked visually. The test was replicated 3 times for each compound.

Cucumber = assay: Phytotoxicity on various crops; type: in vivo; parameters: key: Symbol — indicates that no toxicity was observed; conditions: 500 ppm sprayed; checked visually after 10 days
Procedure: as §1

Tomato = assay: Phytotoxicity on various crops; type: in vivo; parameters: key: Symbol — indicates that no toxicity was observed; conditions: 500 ppm sprayed; checked visually after 10 days
Procedure: as §1

Rice = assay: Phytotoxicity on various crops; type: in vivo; parameters: key: Symbol — indicates that no toxicity was observed; conditions: 500 ppm sprayed; checked visually after 10 days
Procedure: as §1

Tea = assay: Phytotoxicity on various crops; type: in vivo; parameters: key: Symbol — indicates that no toxicity was observed; conditions: 500 ppm sprayed; checked visually after 10 days
Procedure: as §1

Apple = assay: Phytotoxicity on various crops; type: in vivo; parameters: key: Symbol — indicates that no toxicity was observed; conditions: 500 ppm sprayed; checked visually after 10 days
Procedure: as §1

Beet = assay: Phytotoxicity on various crops; type: in vivo; parameters: key: Symbol — indicates that no toxicity was observed; conditions: 500 ppm sprayed; checked visually after 10 days
Procedure: as §1

Cabbage = assay: Phytotoxicity on various crops; type: in vivo; parameters: key: Symbol — indicates that no toxicity was observed; conditions: 500 ppm sprayed; checked visually after 10 days
Procedure: as §1

Green Pepper = assay: Phytotoxicity on various crops; type: in vivo; parameters: key: Symbol — indicates that no toxicity was observed; conditions: 500 ppm sprayed; checked visually after 10 days
Procedure: as §1

Kidney Bean = assay: Phytotoxicity on various crops; type: in vivo; parameters: key: Symbol — indicates that no toxicity was observed; conditions: 500 ppm sprayed; checked visually after 10 days
Procedure: as §1

Cotton = assay: Phytotoxicity on various crops; type: in vivo; parameters: key: Symbol — indicates that no toxicity was observed; conditions: 500 ppm sprayed; checked visually after 10 days
Procedure: as §1

apple leaf miner = assay: Insecticidal effect on apple leaf miner (sprayed apple seedling); type: in vivo, Lithocolletis ringoniella; conditions: Phyllonorycter ringoniella, 336 h, 500 ppm, fourteen days after spraying
Procedure: (§2) (A) A dilute water suspension of a wettable powder prepared as described in Formulation Example 5 was sufficiently sprayed using a spray-gun on a seedling of an apple tree planted in a bisque flower pot to which plant larvae of apple leaf miner just after hatching were parasitic. Thereafter the pots were placed in a green house. Fourteen days after the spraying, bores made by larvae were broken and percent mortality was assessed for all the leaves of each seedling. Three pots were used for each treatment.
as §2, with “(B)” for “(A)”, “7” for “5”

rice stem borer = assay: Insecticidal effect on rice stem borer, 3rd-instar larvae (rice seedling dip); type: in vivo, Chilo suppressalis; conditions: after 72 hours, 25°C
Procedure: (§3) (A) A wettable powder prepared as described in Formulation Example 5 was diluted with water to a predetermined concentration. Rice seedlings were dipped into the dilute solution and placed in a 60 ml volume cup made of vinyl chloride resin, and 10 3rd-instar larvae of rice stem borer were put in each cup. The cups were capped and maintained at 25°C.
as §3, with “(B) A” for “(A) A”, “Example 7” for “Example 5”

tobacco cutworm [1] = assay: Insecticidal effect on tobacco cutworm (cabbage leaf dip); type: in vivo, Prodenia litura; conditions: after 48 hours, 25°C
Procedure: (§4) (A) An emulsifiable concentrate prepared as described in Formulation Example 1 was diluted with water to a predetermined concentration and then cabbage leaves were dipped into the dilute solution and dried in air and placed in a 60 ml volume cup made of vinyl chloride resin. 3rd-instar larvae of tobacco cutworm were put in each cup and maintained at 25°C. After 48 hours, percent mortality was assessed. The test was replicated 3 times for each compound using 30 insects in each test.
as §4, with “(B)” for “(A)”, “3” for “1”

diamond back moth = assay: Insecticidal effect on diamond-back moth (cabbage leaf dip); type: in vivo, Plutella xylostella; conditions: 100 ppm, after 72 hours, 25°C
Procedure: (§5) (A) An emulsifiable concentrate prepared as described in Formulation Example 1 was diluted with water to a predetermined concentration and leaves of a cabbage were dipped into the dilute emulsion for 10 seconds followed by drying in air, and charged in a 60 ml volume cup made of vinyl chloride resin. Then, thirty 3rd-instar larvae of diamond back moth were put in each cup, and the cups were kept at 25°C. After 72 hours, percent mortality was assessed and the test was replicated 3 times for each treatment.
as §5, with “(B) An” for “(A) An”, “Example 4” for “Example 1”

smaller tea tortrix = assay: Insecticidal effect on smaller tea tortrix (apple leaf dip); type: in vivo; conditions: Adoxophyes orana, foliar, read-out: Percent Mortality
Procedure: Leaves of an apple tree were dipped into a dilute water suspension of a wettable powder prepared as described in Formulation Example 5. After drying in air, the leaves were charged in a 60 ml volume cup made of vinyl chloride resin, and […] 3rd-instar larvae of smaller tea tortrix were put in each cup. The cups were capped and kept at 25°C. After 72 hours, the number of the surviving insects and the dead insects were recorded to determine percent mortality. In each treatment, 3 cups and 30 insects were used in total.

tobacco cutworm [2] = assay: Long-lasting insecticidal effect on tobacco cutworm (sprayed cabbage plantlet); type: in vivo, Prodenia litura; conditions: Table 6, concentration 500 (unit not given), mortality after 48 hours; for Percent Mortality After Application 3rd Day: leaves cut on 3rd day; for Percent Mortality After Application 5th Day: leaves cut on 5th day; for Percent Mortality After Application 7th Day: leaves cut on 7th day; for Percent Mortality After Application 10th Day: leaves cut on 10th day
Procedure: (§6) (A) An emulsifiable concentrate prepared as described in Formulation Example 2 was diluted with water to a predetermined concentration and sprayed onto a cabbage plantlet in a flower pot of 15 cm in diameter using a spray-gun sufficiently and the tests plants were placed in a green house. The leaves of the plants were cut off on the 3rd, 5th, 7th, 10th and 15th day and placed in a 60 ml volume cup and 3rd-instar larvae of tobacco cutworm were put in each cup. The cups were kept in an incubator (25°C). After 48 hours, percent mortality was assessed. The tests was replicated 3 times for each compound using 30 insects in each test.
as §6, with “(B) An” for “(A) An”, “Example 3” for “Example 2”, “and 1 5th” for “and 15th”

[3] = Table 1, 100 ppm, wettable powder as Formulation Example 5
[4] = Table 1, 500 ppm, wettable powder as Formulation Example 5
[5] = Table 2, 100 ppm, wettable powder as Formulation Example 7
[6] = Table 4, 100 ppm, emulsifiable concentrate as Formulation Example 3
[7] = Table 8, emulsifiable concentrate as Formulation Example 4
[8] = Table 9, 100 ppm, after 72 hours, 25°C, wettable powder as Formulation Example 5
[9] = Table 3, 500 ppm, emulsifiable concentrate as Formulation Example 1

Structure (SMILES)	Phytotoxicity: Egg Plant (egg plant)	Phytotoxicity: Cucumber (Cucumber)	Phytotoxicity: Tomato (Tomato)	Phytotoxicity: Rice (Rice)	Phytotoxicity: Tea (Tea)	Phytotoxicity: Apple (Apple)	Phytotoxicity: Beet (Beet)	Phytotoxicity: Cabbage (Cabbage)	Phytotoxicity: Green Pepper (Green Pepper)	Phytotoxicity: Kidney Bean (Kidney Bean)	Phytotoxicity: Cotton (Cotton)	Percent Mortality (%) (rice stem borer; [3])	Percent Mortality (%) (rice stem borer; [4])	Percent Mortality (%) (rice stem borer; [5])	Percent Mortality (%) (tobacco cutworm [1]; [6])	Percent Mortality (%) (diamond back moth; [7])	mortality at 100 ppm (smaller tea tortrix; [8]) [%]	Percent Mortality After Application 3rd Day (tobacco cutworm [2]) [%]	Percent Mortality After Application 5th Day (tobacco cutworm [2]) [%]	Percent Mortality After Application 7th Day (tobacco cutworm [2]) [%]	other results
CCOP(=O)(Oc1ccc2c(c1)OC(CC)=C(C)C2(CC)CC)SC(C)CC (stereo not drawn) [Compound No. 19]	—	—	—	—	—	—	—	—	—	—	—	100	100	100	100						mortality at 500 ppm (apple leaf miner; Table 10, wettable powder as Formulation Example 5, read-out: Percent Morality (%)): 100%
CCCSP(=O)(OCC)Oc1cccc2c1C(C)=CC(C)(C)O2 (stereo not drawn) [Compound No. 22]	—	—	—	—	—	—	—	—	—	—	—	100	100	100	100	100	100	100	100	73.3	Percent Mortality (%) (diamond back moth; Table 7, emulsifiable concentrate as Formulation Example 1): 100%; Percent Mortality After Application 10th Day (tobacco cutworm [2]): 53.3%; Percent Mortality After Application Immediately after Application (tobacco cutworm [2]): 100%; Percent Mortality (%) (tobacco cutworm [1]; [9]): 100%
CCC(C)SP(=O)(OC)Oc1ccc2c(c1)OC(C)(C)C=C2C (stereo not drawn) [Compound No. 24]	—	—	—	—	—	—	—	—	—	—	—			100	100	100		100	93.3	60.0	mortality at 500 ppm (apple leaf miner; Table 11, wettable powder as Formulation Example 7, read-out: Percent Mortality (%)): 100%; Percent Mortality After Application 10th Day (tobacco cutworm [2]): 23.3%; Percent Mortality After Application Immediately after Application (tobacco cutworm [2]): 100%
CCOP(=S)(OCC)Oc1cc(C)nc(C(C)C)n1 [Diazinon, 0,0-diethyl (O-2-isopropyl-6-methyl-pyrimidin-4-yl)phosphorothioate, reference compound]																					mortality at 100 ppm (smaller tea tortrix; 72 h): 43.3%
CCOP(=O)(Oc1ccc2c(c1)OC(C)=CC2(C)C)SC(C)C (stereo not drawn) [compound 14]	—	—	—	—	—	—	—	—	—	—	—		100				83.3				Percent Mortality (%) (tobacco cutworm [1]; [9]): 100%

From patent EP0054589B1, “Organic phosphoric acid ester derivatives, a process for preparing the same and insecticidal, miticidal or nematocidal compositions containing the same” (priority 1980, dated 1982)
